Laboratory results reported in patent US20240165132A1, “METHODS AND MATERIALS FOR TREATING CANCER” (Mayo Foundation for Medical Education and Research, priority 2021, published 2024).
Like-named read-outs stand apart in the source and are kept apart here.

Legend:
GBM39, 76, 10 and 123 = test: BCL-2-family inhibitors in radiated vs non-radiated GBM lines; format: cell-based, human; conditions: GBM39, 76, 10, 123; 4 days drug starting 21 days after radiation
Procedure: Dose response curves shown for control non-radiated (black) and 15 Gy radiated (grey) cells. Cells were exposed to drug for 4 days, starting 21 days after radiation. […] For all groups, luminescence values are normalized individually to 0 nM control. Data shown are means±SEM of three technical replicates at each concentration. Data shown are representative of multiple confirmatory experiments.
Human glioblastoma cells were exposed to 10, 15 or 20 Gy radiation as indicated above. All GBM lines tested (Table 2) yielded a subpopulation of surviving non-proliferative cells used for subsequent experiments, with the exception of GM43 which yielded insufficient surviving cells for senescence experiments. All senolytic drugs used in this study were dissolved in DMSO (Table 1). Control (0 nM) cells were treated with the same dose of DMSO as cells with the highest drug concentration. Unless specified otherwise, cells were maintained in drug-containing media for four days prior to evaluation of cell viability using ATP lite, CellTiter-Glo assay according to company protocol (Cat #G7570). For all experiments, luminescence values are normalized to the 0 nM control for that cell line and radiation dose. All dose response graphs are depicted standard error of the mean (SEM) of 3 technical replicates at each concentration. Representative data are shown for experiments performed in independent replicates.
Among the 13 human GBM cell lines evaluated, meaningful analysis was possible in all with the exception of GBM43, for which insufficient cells survived radiation to permit testing. While the IC50 of Bcl-XL inhibition with and without radiation varied markedly between lines, radiated GBM was reproducibly more susceptible to Bcl-XL inhibition than non-radiated GBM.

GBM76 (p53 WT) = test: MDM2 inhibitor pre-treatment then Bcl-XL inhibitor, CellTiter-Glo; format: cell-based, human; conditions: Homo sapiens
Procedure: Cells were then maintained for seven days, to allow time for cells to establish a senescent-like phenotype. […] Cell viability was evaluated after 5 days using the CellTiter-Glo luminescence-based cell viability assay.

Structure (SMILES): Cc1c(-c2ccc(N3CCc4cccc(C(=O)Nc5nc6ccccc6s5)c4C3)nc2C(=O)O)cnn1CC12CC3CC(CC(C3)C1)C2 [A1331852]
- Sensitivity of 15 Gy-radiated vs non-radiated cells (GBM39, 76, 10 and 123): higher sensitivity than non-radiated cells
- IC50 (GBM76 (p53 WT); read-out: IC50 of A1331852, GBM76, 5 Gy radiation alone (vehicle pre-treatment)): 18.1 µM
- IC50 (GBM76 (p53 WT); read-out: IC50 of A1331852, GBM76, MDM2 inhibitor AMG232 1 μM 48 hours prior to 5 Gy radiation): 4.5 µM
